Source: US11066396B2 (priority 2016, dated 2021)

Assays:
HDAC8 = HDAC8 (Homo sapiens (Human), UniProt Q9BY41); settings: read-out: HDAC8 IC50
HDAC1 = HDAC1 (Homo sapiens (Human), UniProt Q13547); settings: read-out: HDAC1 IC50
Procedure: Assay protocol: In brief, compounds were titrated in 100% DMSO via accoustic dispensing directly to the assay plate using the ECHO 550 [Labcyte]. HDAC enzymes at the concentrations indicated above were added in assay buffer to the assay plates containing the compounds using a Combi [Thermo Scientific]. The wells were mixed, and the plates were allowed to pre-incubate at ambient temperature for 3 h. After the 3 h, the appropriate substrate, at the concentrations indicated above, was added to the wells using a Combi. The wells were mixed, and the plates were allowed to incubate at ambient temperature for 1 h. After the 1 h, the appropriate Developer/stop solution was added to the wells using a Combi. The wells were mixed, and the plates were allowed to incubate at ambient temperature for 1 h. […] Data were analyzed using 4P curve fitting with Activity Base [IDBS] software.

HDAC5 = HDAC5 (Homo sapiens (Human), UniProt Q9UQL6); settings: read-out: HDAC5 IC50
Sequence of HDAC5 (Q9UQL6 656-1122): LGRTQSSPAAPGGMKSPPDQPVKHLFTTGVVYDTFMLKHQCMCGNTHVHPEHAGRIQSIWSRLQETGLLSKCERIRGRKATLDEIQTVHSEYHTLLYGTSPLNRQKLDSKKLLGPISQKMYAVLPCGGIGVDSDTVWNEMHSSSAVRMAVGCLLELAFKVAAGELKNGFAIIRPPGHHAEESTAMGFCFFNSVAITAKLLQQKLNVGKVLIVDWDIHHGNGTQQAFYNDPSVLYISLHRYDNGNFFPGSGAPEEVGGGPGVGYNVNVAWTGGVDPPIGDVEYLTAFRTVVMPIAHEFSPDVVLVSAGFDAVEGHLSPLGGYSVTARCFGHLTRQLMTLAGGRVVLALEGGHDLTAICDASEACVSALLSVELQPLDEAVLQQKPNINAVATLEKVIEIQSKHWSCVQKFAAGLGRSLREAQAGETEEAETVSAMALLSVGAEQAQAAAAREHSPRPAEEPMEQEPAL

Sequence of HDAC8 (Q9BY41 whole entry): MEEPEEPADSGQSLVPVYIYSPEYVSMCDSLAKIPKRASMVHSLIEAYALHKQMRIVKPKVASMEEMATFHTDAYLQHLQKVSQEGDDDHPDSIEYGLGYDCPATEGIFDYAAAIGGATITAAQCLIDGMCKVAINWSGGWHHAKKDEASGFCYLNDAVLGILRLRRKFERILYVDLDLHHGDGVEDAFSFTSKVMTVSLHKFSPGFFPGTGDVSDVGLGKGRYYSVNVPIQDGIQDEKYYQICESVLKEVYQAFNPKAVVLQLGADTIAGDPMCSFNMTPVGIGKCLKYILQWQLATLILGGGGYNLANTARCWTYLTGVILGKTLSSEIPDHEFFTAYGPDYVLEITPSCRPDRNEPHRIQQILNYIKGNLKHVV
Sequence of HDAC1 (Q13547 whole entry): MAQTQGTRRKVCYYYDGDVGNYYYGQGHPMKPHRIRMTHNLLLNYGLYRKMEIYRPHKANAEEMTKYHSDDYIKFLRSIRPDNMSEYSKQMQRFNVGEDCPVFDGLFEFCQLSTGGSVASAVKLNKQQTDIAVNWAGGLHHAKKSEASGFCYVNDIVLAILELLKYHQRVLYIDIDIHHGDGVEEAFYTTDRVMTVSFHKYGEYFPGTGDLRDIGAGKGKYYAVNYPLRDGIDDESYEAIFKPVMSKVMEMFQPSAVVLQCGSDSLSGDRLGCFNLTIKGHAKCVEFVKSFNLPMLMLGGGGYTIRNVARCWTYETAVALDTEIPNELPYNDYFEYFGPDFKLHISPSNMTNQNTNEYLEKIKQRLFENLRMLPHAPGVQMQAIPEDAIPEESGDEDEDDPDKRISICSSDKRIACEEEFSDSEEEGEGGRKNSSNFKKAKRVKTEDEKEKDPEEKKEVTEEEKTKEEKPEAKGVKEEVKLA

CNC(=O)OCc1ccc(-c2noc(C(F)(F)F)n2)cn1 [Example 194, {5-[5-(trifluoromethyl)-1,2,4-oxadiazol-3-yl]pyridin-2-yl}methyl methylcarbamate]
IC50 (HDAC8): 1300 nM
IC50 (HDAC1): 1700 nM
IC50 (HDAC5): 610 nM

O=C(NC1CCOCC1)OCc1ccc(-c2noc(C(F)(F)F)n2)cn1 [Example 195, {5-[5-(trifluoromethyl)-1,2,4-oxadiazol-3-yl]pyridin-2-yl}methyl oxan-4-ylcarbamate]
IC50 (HDAC8): 1600 nM
IC50 (HDAC1): 780 nM
IC50 (HDAC5): 660 nM

CN(C(=O)[C@@H]1COCC(=O)N1c1ccc(-c2noc(C(F)(F)F)n2)c(F)c1)C(C)(C)C [Example 196, (3S)-N-tert-butyl-4-{3-fluoro-4-[5-(trifluoromethyl)-1,2,4-oxadiazol-3-yl]phenyl}-N-methyl-5-oxomorpholine-3-carboxamide]
IC50 (HDAC8): 6300 nM
IC50 (HDAC1): 6900 nM
IC50 (HDAC5): 300 nM

O=C(OCCOCCCl)[C@@H]1CCC(=O)N1c1ccc(-c2noc(C(F)(F)F)n2)c(F)c1 [Example 197, 2-(2-chloroethoxy)ethyl 1-{3-fluoro-4-[5-(trifluoromethyl)-1,2,4-oxadiazol-3-yl]phenyl}-5-oxo-L-prolinate]
IC50 (HDAC8): 110 nM
IC50 (HDAC1): 1200 nM
IC50 (HDAC5): 50 nM

COC(=O)N1CCC(C(=O)N(Cc2ccc(-c3noc(C(F)(F)F)n3)cn2)c2cccc(C(F)(F)F)c2)CC1 [Example 198, methyl 4-{({5-[5-(trifluoromethyl)-1,2,4-oxadiazol-3-yl]pyridin-2-yl}methyl)[3-(trifluoromethyl)phenyl]carbamoyl}piperidine-1-carboxylate]
IC50 (HDAC8): 1300 nM
IC50 (HDAC1): 480 nM
IC50 (HDAC5): 650 nM

FC(F)(F)c1nc(-c2ccnc(OCc3nc4ccccc4[nH]3)c2)no1 [Example 200, 2-[({4-[5-(trifluoromethyl)-1,2,4-oxadiazol-3-yl]pyridin-2-yl}oxy)methyl]-1H-benzimidazole]
IC50 (HDAC8): 970 nM
IC50 (HDAC1): 450 nM
IC50 (HDAC5): 460 nM

O=C(C1CCS(=O)(=O)CC1)N(Cc1ccc(-c2noc(C(F)(F)F)n2)cn1)c1ccccc1C(F)(F)F [Example 201, 1,1-dioxo-N-({5-[5-(trifluoromethyl)-1,2,4-oxadiazol-3-yl]pyridin-2-yl}methyl)-N-[2-(trifluoromethyl)phenyl]-llambda~6~-thiane-4-carboxamide]
IC50 (HDAC8): 9200 nM
IC50 (HDAC1): 4000 nM
IC50 (HDAC5): 1400 nM

Cc1ccncc1COc1ccc(-c2noc(C(F)(F)F)n2)cn1 [Example 202, 2-[(4-methylpyridin-3-yl)methoxy]-5-[5-(trifluoromethyl)-1,2,4-oxadiazol-3-yl]pyridine]
IC50 (HDAC8): 900 nM
IC50 (HDAC1): 2200 nM
IC50 (HDAC5): 730 nM

Fc1cc(COc2cccc3[nH]nnc23)ccc1-c1noc(C(F)(F)F)n1 [Example 227, 4-({3-fluoro-4-[5-(trifluoromethyl)-1,2,4-oxadiazol-3-yl]phenyl}methoxy)-1H-benzotriazole]
IC50 (HDAC8): 730 nM
IC50 (HDAC1): 1500 nM
IC50 (HDAC5): 65 nM

Fc1cc(COc2nncc3ccccc23)ccc1-c1noc(C(F)(F)F)n1 [Example 228, 1-({3-fluoro-4-[5-(trifluoromethyl)-1,2,4-oxadiazol-3-yl]phenyl}methoxy)phthalazine]
IC50 (HDAC8): 2000 nM
IC50 (HDAC1): 4300 nM
IC50 (HDAC5): 140 nM

Cn1nccc1OCc1ccc(-c2noc(C(F)(F)F)n2)c(F)c1 [Example 229, 3-(2-fluoro-4-{[(1-methyl-1H-pyrazol-5-yl)oxy]methyl}phenyl)-5-(trifluoromethyl)-1,2,4-oxadiazole]
IC50 (HDAC8): 4800 nM
IC50 (HDAC1): 3700 nM
IC50 (HDAC5): 140 nM

Fc1cnc(OCc2ccc(-c3noc(C(F)(F)F)n3)c(F)c2)nc1 [Example 230, 5-fluoro-2-({3-fluoro-4-[5-(trifluoromethyl)-1,2,4-oxadiazol-3-yl]phenyl}methoxy)pyrimidine]
IC50 (HDAC8): 540 nM
IC50 (HDAC1): 8500 nM
IC50 (HDAC5): 200 nM

O=C1NCCc2c(OCc3ccc(-c4noc(C(F)(F)F)n4)c(F)c3)cccc21 [Example 231, 5-({3-fluoro-4-[5-(trifluoromethyl)-1,2,4-oxadiazol-3-yl]phenyl}methoxy)-3,4-dihydroisoquinolin-1(2H)-one]
IC50 (HDAC8): 45000 nM
IC50 (HDAC1): 6900 nM
IC50 (HDAC5): 110 nM

Fc1cc(COc2cc[nH]n2)ccc1-c1noc(C(F)(F)F)n1 [Example 232, 3-(2-fluoro-4-{[(1H-pyrazol-3-yl)oxy]methyl}phenyl)-5-(trifluoromethyl)-1,2,4-oxadiazole]
IC50 (HDAC8): 1300 nM
IC50 (HDAC1): 3000 nM
IC50 (HDAC5): 67 nM

Cn1cccc(OCc2ccc(-c3noc(C(F)(F)F)n3)c(F)c2)c1=O [Example 233, 3-({3-fluoro-4-[5-(trifluoromethyl)-1,2,4-oxadiazol-3-yl]phenyl}methoxy)-1-methylpyridin-2(1H)-one]
IC50 (HDAC8): 2200 nM
IC50 (HDAC1): 1600 nM
IC50 (HDAC5): 170 nM

Fc1cc(COc2ccc3cnccc3n2)ccc1-c1noc(C(F)(F)F)n1 [Example 234, 2-({3-fluoro-4-[5-(trifluoromethyl)-1,2,4-oxadiazol-3-yl]phenyl}methoxy)-1,6-naphthyridine]
IC50 (HDAC8): 640 nM
IC50 (HDAC1): 370 nM
IC50 (HDAC5): 8.4 nM

Fc1cc(COc2cncnc2)ccc1-c1noc(C(F)(F)F)n1 [Example 236, 5-({3-fluoro-4-[5-(trifluoromethyl)-1,2,4-oxadiazol-3-yl]phenyl}methoxy)pyrimidine]
IC50 (HDAC8): 2100 nM
IC50 (HDAC1): 3100 nM
IC50 (HDAC5): 42 nM

Cc1cc(OCc2ccc(-c3noc(C(F)(F)F)n3)c(F)c2)cc(C)n1 [Example 237, 4-({3-fluoro-4-[5-(trifluoromethyl)-1,2,4-oxadiazol-3-yl]phenyl}methoxy)-2,6-dimethylpyridine]
IC50 (HDAC8): 5300 nM
IC50 (HDAC1): 1800 nM
IC50 (HDAC5): 230 nM

COc1cnnc(OCc2ccc(-c3noc(C(F)(F)F)n3)c(F)c2)c1 [Example 239, 3-({3-fluoro-4-[5-(trifluoromethyl)-1,2,4-oxadiazol-3-yl]phenyl}methoxy)-5-methoxypyridazine]
IC50 (HDAC8): 2400 nM
IC50 (HDAC1): 5900 nM
IC50 (HDAC5): 190 nM

Fc1cc(COc2ccc3ncnn3c2)ccc1-c1noc(C(F)(F)F)n1 [Example 240, 6-({3-fluoro-4-[5-(trifluoromethyl)-1,2,4-oxadiazol-3-yl]phenyl}methoxy)[1,2,4]triazolo[1,5-a]pyridine]
IC50 (HDAC8): 11000 nM
IC50 (HDAC1): 1500 nM
IC50 (HDAC5): 78 nM

Cc1nccc(OCc2ccc(-c3noc(C(F)(F)F)n3)c(F)c2)n1 [Example 241, 4-({3-fluoro-4-[5-(trifluoromethyl)-1,2,4-oxadiazol-3-yl]phenyl}methoxy)-2-methylpyrimidine]
IC50 (HDAC8): 3000 nM
IC50 (HDAC1): 3200 nM
IC50 (HDAC5): 48 nM

Fc1cc(COc2cc(C(F)F)ncn2)ccc1-c1noc(C(F)(F)F)n1 [Example 242, 4-(difluoromethyl)-6-({3-fluoro-4-[5-(trifluoromethyl)-1,2,4-oxadiazol-3-yl]phenyl}methoxy)pyrimidine]
IC50 (HDAC8): 1700 nM
IC50 (HDAC1): 2900 nM
IC50 (HDAC5): 110 nM

COc1ccc(OCc2ccc(-c3noc(C(F)(F)F)n3)c(F)c2)nc1 [Example 243, 2-({3-fluoro-4-[5-(trifluoromethyl)-1,2,4-oxadiazol-3-yl]phenyl}methoxy)-5-methoxypyridine]
IC50 (HDAC8): 1600 nM
IC50 (HDAC1): 1500 nM
IC50 (HDAC5): 50 nM
